Experimental data taken from BindingDB's records for doi:10.1016/j.bmcl.2016.04.067 (Peking University Health Science Center, 2016).

Key:
[1] = Inhibition of trypsin-like activity of 20S human proteasome assessed as Z-LRR-AMC hydrolysis at using Promega proteasome-Glo-3 substrate incubated for 15 mins by luminescence assay
[2] = Inhibition of caspase-like activity of 20S human proteasome assessed as Z-nLPnLD-AMC hydrolysis at using Promega proteasome-Glo-3 substrate incubated for 15 mins by luminescence assay

SMILES | IC50 [1] | IC50 [2]
O=c1c2ccccc2c(-c2ccc(OCCCC[P+](c3ccccc3)(c3ccccc3)c3ccccc3)cc2)nn1-c1ccccc1 | 220 µM | 103 µM
O=c1c2ccccc2c(-c2ccc(OCCCC[P+](c3ccccc3)(c3ccccc3)c3ccccc3)cc2)nn1-c1cccs1 | 558 µM | 70.5 µM
CNc1ccc(-n2nc(-c3ccc(OCCCC[P+](c4ccccc4)(c4ccccc4)c4ccccc4)cc3)c3ccccc3c2=O)cc1 | 390 µM | 131 µM

Other lines, results leading:

IC50 [1] | IC50 [2] | SMILES
276 µM | 80.2 µM | CC(C)Cn1nc(-c2ccc(OCCCC[P+](c3ccccc3)(c3ccccc3)c3ccccc3)cc2)c2ccccc2c1=O
589 µM | 133 µM | O=c1c2ccccc2c(-c2ccc(OCCCC[P+](c3ccccc3)(c3ccccc3)c3ccccc3)cc2)nn1CC1CC1
643 µM | 50.4 µM | O=c1c2ccccc2c(-c2ccc(OCCCC[P+](c3ccccc3)(c3ccccc3)c3ccccc3)cc2)nn1CC1CCCCC1
